One may read the IC50 as the concentration needed to halve the response being measured.

The test system of one assay is K562 cells. Briefly: K562 cell proliferation assay (CellTiter-Glo). The class given is cell-based. The conditions noted are these: Homo sapiens, K562 cell viability, 72 hours, read-out: Cell Line (IC50, nM) K562.
Another assay relates to pCRKL in K562 cells. Briefly: pCRKL ELISA assay in K562 cells. It is filed as cell-based. As to conditions: Homo sapiens, 1.5 h, 90 minutes incubation, read-out: pCRKL ELISA, Cell Line IC50 (nM) K562. As to the method: K562 or Ba/F3 ABL T315I cells (2.0*10^5 cells/100 μl/well) were seeded in 96 well (Corning, cat #3799). Compounds were dissolved in DMSO, serially diluted in DMSO and then were added, mixed, and incubated for 90 minutes at 37° C., 5% CO2. Following the 90-minute incubation, plates were centrifuged for 5 min at 3000 RPM and supernatant was removed from each well. Cells were washed 3 times with 150 μl PBS prior to addition of 100 μl cell RIPA lysis buffer (Boston BioProducts, cat #BP-115D) supplied with 1× complete ULTRA cocktail inhibitor (Roche, 05892791001) and 1× PhosSTOP Phosphatase Inhibitor Cocktail Tablets (Roche, 04906837001). Cells were incubated with lysis buffer for 1 hour at 4° C. prior to storage at −80C.
A capture antibody able to detect phosphorylated and non-phosphorylated CRKL (R&D Systems, cat #AF5127) was added to Meso Scale Discovery (MSD) standard bind plates (MSD, cat #L15XA-3) at 5 ug/mL and incubated at 4° C. overnight. The next day, plates were washed with PBS+ 0.05% Tween20 (PBST) and 150 μl of 5% BSA blocking solution was added for 1 hour at room temperature with shaking. Plates were washed with PBST. Lysates were thawed and 30 μl of lysate was added to the MSD plates and incubated for 2 hours at room temperature with shaking. MSD plates were washed with PBST and 30 μl of a detection antibody that binds phosphorylated pCRKL (R&D Systems, cat #MAB6910) was added at 1 ug/mL to each well. Plates were incubated for 1 hour at room temperature with shaking. Plates were washed with PBST prior to addition of 30 μl of a sulfo tagged goat anti mouse detection antibody (MSD cat #R32AC-1). Plates were incubated for 1 hour at room temperature with shaking. Plates were washed with PBST prior to addition of 150 ul of 1×MSD read buffer T (MSD, cat #R92TC-2). Electrochemiluminescence (ECLU) was read on an MSD plate reader (Meso Scale Discovery). The remaining activity by calculated as follows: % Relative activity=100× (ELCUsample−ECLULC)/(ECLUHC−ECLULC). The low and high controls (LC/HC) are generated from lysate from wells without cells or with cells treated with 0.1% DMSO, respectively. IC50 values were calculated using XLFit software using a nonlinear regression model with a sigmoidal dose response and are shown in Table 4 and Table 5 below.
(ELISA stands for enzyme-linked immunosorbent assay.)

The target of another assay is T1, ABL1 (Homo sapiens, UniProt P00519).
T1 construct: purchased Carna Biosciences
Briefly: Luminescence-based ABL kinase assay (300 μM ATP), ADP-Glo. The class given is biochemical. The text has this: Compounds were serially diluted in DMSO. […] Luminescence signal positively correlates with kinase activity.

In the next assay the test system is HL60 cells. The assay is described as follows: HL60 cell proliferation assay (CellTiter-Glo). It is filed as cell-based. As to conditions: Homo sapiens, HL-60, HL60 cell viability, 72 hours, read-out: Cell Line (IC50, nM) HL60.
The target of another assay is ABL1 (T315I) (Homo sapiens, UniProt P00519, T315I). Briefly: Luminescence-based ABL kinase assay (300 μM ATP), ADP-Glo. It is filed as biochemical. For orientation: ADP-Glo turns the ADP formed in a reaction into a luminescent signal.

Turning to `COc1ccnc(OC)c1-c1cc2cc(NC(=O)[C@H]3C[C@@H]3CN3CCN(C)CC3)ncc2n1C` (single isomer, unassigned) [Compound 120], the IC50 is 47.6 nM in the assay with K562 cells; 108 nM with pCRKL in K562 cells; 27.1 nM against ABL1; > 10000 nM with HL60 cells; 39.8 nM against ABL1 (T315I).
For the compound `COc1ccnc(OC)c1-c1cc2cc(NC(=O)[C@H]3C[C@@H]3CN3CCNCC3)ncc2n1C` (single isomer, unassigned) [Compound 138], the concentration for half-maximal inhibition (IC50) came to 254 nM in the assay with pCRKL in K562 cells, 12.8 nM against ABL1 and 24.4 nM at ABL1 (T315I).
Turning to `COc1ccc(F)cc1-c1cc2cc(NC(=O)[C@@H]3C[C@@H]3F)ncc2n1C` [Compound 26, (1S,2S)-2-fluoro-N-[2-(5-fluoro-2-methoxyphenyl)-1-methylpyrrolo[2,3-c]pyridin-5-yl]cyclopropane-1-carboxamide], the IC50 in the assay with K562 cells was 174 nM; with pCRKL in K562 cells, 303 nM; against ABL1, 30.3 nM; in the assay with HL60 cells it was 2930 nM; against ABL1 (T315I) it was 8.99 nM.
In the case of `COc1cccc(F)c1-c1cc2cc(NC(=O)[C@@H]3C[C@@H]3F)ncc2n1C` [Compound 27, (1S,2S)-2-fluoro-N-[2-(2-fluoro-6-methoxyphenyl)-1-methylpyrrolo[2,3-c]pyridin-5-yl]cyclopropane-1-carboxamide], the half-maximal inhibitory concentration (IC50) with K562 cells was found to be 112 nM; in the assay with pCRKL in K562 cells it was 553 nM; at ABL1, 40.7 nM; in the assay with HL60 cells, 761 nM; against ABL1 (T315I) it was 1.85 nM.
For `Cn1c(-c2cccc3c2CCN3)cc2cc(NC(=O)[C@@H]3C[C@@H]3F)ncc21` [Compound 31, (1S,2S)-N-[2-(2,3-dihydro-1H-indol-4-yl)-1-methylpyrrolo[2,3-c]pyridin-5-yl]-2-fluorocyclopropane-1-carboxamide] the same measures were 143 nM, 83.2 nM, 10.7 nM, 514 nM and 9.48 nM.
For `[2H]C([2H])([2H])Oc1ncccc1-c1cc2cc(NC(=O)[C@@H]3C[C@@H]3F)ncc2n1C` [Compound 32, (1S,2S)-2-fluoro-N-(2-(2-(methoxy-d3)pyridin-3-yl)-1-methyl-1H-pyrrolo[2,3-c]pyridin-5-yl)cyclopropane-1-carboxamide], in that order: 182 nM, 189 nM, 28.6 nM, 5120 nM and 83.1 nM.
Turning to `COc1ccccc1-c1c(C)c2cnc(NC(=O)[C@@H]3C[C@@H]3F)cc2n1C` [Compound 52, (1S,2S)-2-fluoro-N-(2-(2-methoxyphenyl)-1,3-dimethyl-1H-pyrrolo[3,2-c]pyridin-6-yl)cyclopropane-1-carboxamide], the 50% inhibitory concentration (IC50) in the assay on K562 cells amounted to 109 nM; in the assay on pCRKL in K562 cells it was 416 nM; on ABL1, 51.3 nM; in the assay with HL60 cells, 1200 nM; against ABL1 (T315I), 4.23 nM.
For `COc1ccccc1-c1c(C)c2cnc(NC(=O)[C@H]3C[C@H]3F)cc2n1C` [Compound 53, (1R,2R)-2-fluoro-N-[2-(2-methoxyphenyl)-1,3-dimethylpyrrolo[3,2-c]pyridin-6-yl]cyclopropane-1-carboxamide] the same measures were 90.9 nM, 574 nM, 82.4 nM, > 10000 nM and 8.3 nM.
On to `COc1cccc(F)c1-c1c(C)c2cnc(NC(=O)[C@@H]3C[C@@H]3F)cc2n1C` [Compound 54, (1S,2S)-2-fluoro-N-(2-(2-fluoro-6-methoxyphenyl)-1,3-dimethyl-1H-pyrrolo[3,2-c]pyridin-6-yl)cyclopropane-1-carboxamide], for which the IC50 with K562 cells was found to be 51.1 nM; with pCRKL in K562 cells, 151 nM; against ABL1, 51.9 nM; with HL60 cells, 957 nM; against ABL1 (T315I), 6.51 nM.
Take `COc1ccccc1-c1cc2cc(NC(=O)NCCN3CCN(C)CC3)ncc2n1C` [Compound 79, 3-[2-(2-methoxyphenyl)-1-methylpyrrolo[2,3-c]pyridin-5-yl]-1-[2-(4-methylpiperazin-1-yl)ethyl]urea]: the IC50 in the assay with K562 cells is 329 nM; with pCRKL in K562 cells, 594 nM; on ABL1, 79.2 nM; in the assay on HL60 cells, > 10000 nM; at ABL1 (T315I), 77 nM.
`Cn1c(-c2cccnc2OC2CC2)cc2cc(NC(=O)[C@@H]3C[C@@H]3F)ncc21` [Compound 115, (1S,2S)-N-[2-(2-cyclopropoxypyridin-3-yl)-1-methylpyrrolo[2,3-c]pyridin-5-yl]-2-fluorocyclopropane-1-carboxamide]: the IC50 in the assay with K562 cells is 80.8 nM; at ABL1, 18.5 nM; in the assay with HL60 cells, 1550 nM; at ABL1 (T315I), 469 nM.
As to `Cn1c(-c2cnccc2OC2CC2)cc2cc(NC(=O)[C@@H]3C[C@@H]3F)ncc21` [Compound 116, (1S,2S)-N-[2-(4-cyclopropoxypyridin-3-yl)-1-methylpyrrolo[2,3-c]pyridin-5-yl]-2-fluorocyclopropane-1-carboxamide], the 50% inhibitory concentration (IC50) in the assay with K562 cells turned out to be 256 nM; against ABL1, 66.9 nM; in the assay on HL60 cells, 9310 nM; against ABL1 (T315I), 1190 nM.
Regarding `Cn1c(-c2ccncc2OC2CC2)cc2cc(NC(=O)[C@@H]3C[C@@H]3F)ncc21` [Compound 117, (1S,2S)-N-[2-(3-cyclopropoxypyridin-4-yl)-1-methylpyrrolo[2,3-c]pyridin-5-yl]-2-fluorocyclopropane-1-carboxamide], the IC50 in the assay on K562 cells turned out to be 141 nM; at ABL1, 43.3 nM; in the assay on HL60 cells it was 4180 nM; at ABL1 (T315I), 662 nM.
For `COc1ncnc(OC)c1-c1cc2cc(NC(=O)C3CC3)ncc2n1C` [Compound 118, N-[2-(4,6-dimethoxypyrimidin-5-yl)-1-methylpyrrolo[2,3-c]pyridin-5-yl]cyclopropanecarboxamide] the same measures were 71.4 nM, 35.3 nM, 929 nM and 108 nM.
For `COc1cccc(OC)c1-c1cc2cc(NC(=O)[C@@H]3C[C@@H]3F)ncc2n1C` [Compound 119, (1S,2S)-N-[2-(2,6-dimethoxyphenyl)-1-methylpyrrolo[2,3-c]pyridin-5-yl]-2-fluorocyclopropane-1-carboxamide], the IC50 is 9.35 nM in the assay on K562 cells, 2.38 nM against ABL1, 159 nM in the assay with HL60 cells and 1.76 nM at ABL1 (T315I).
For `COc1nc(C)ncc1-c1cc2cc(NC(=O)[C@@H]3C[C@@H]3F)ncc2n1C` [Compound 141, (1S,2S)-2-fluoro-N-[2-(4-methoxy-2-methylpyrimidin-5-yl)-1-methylpyrrolo[2,3-c]pyridin-5-yl]cyclopropane-1-carboxamide], in that order: 381 nM, 316 nM, > 10000 nM and 1990 nM.
For `CCc1ccnc(OC)c1-c1cc2cc(NC(=O)[C@@H]3C[C@@H]3F)ncc2n1C` [Compound 142, (1S,2S)-N-[2-(4-ethyl-2-methoxypyridin-3-yl)-1-methylpyrrolo[2,3-c]pyridin-5-yl]-2-fluorocyclopropane-1-carboxamide] the same measures were 59.3 nM, 18.6 nM, 1690 nM and 17.5 nM.
As for `CCOc1ncc(F)cc1-c1cc2cc(NC(=O)[C@@H]3C[C@@H]3F)ncc2n1C` [Compound 143, (1S,2S)-N-[2-(2-ethoxy-5-fluoropyridin-3-yl)-1-methylpyrrolo[2,3-c]pyridin-5-yl]-2-fluorocyclopropane-1-carboxamide], the 50% inhibitory concentration (IC50) is 289 nM in the assay on K562 cells, 74.9 nM at ABL1, 9800 nM in the assay on HL60 cells and 299 nM on ABL1 (T315I).
